# Test results reported in patent publication US9492436B2, “Azabenzimidazole derivatives” (Boehringer Ingelheim International GmbH, priority 2013, dated 2016).
# What was measured:
# [1] = Aqueous solubility (buffer vs acetonitrile/water, 24 h shaking, LC-UV); format: physicochemical; conditions: kinetic from dmso stock, 2.5% DMSO, ">" = more than 90% dissolved
# Procedure: The aqueous solubility of the compounds of the invention is determined by comparing the amount dissolved in buffer to the amount in an acetonitrile/water (1/1) solution. Starting from a 10 mM DMSO stock solution aliquots are diluted with acetonitrile/water (1/1) or buffer resp. After 24 h of shaking, the solutions are filtrated and analyzed by LC-UV. The amount dissolved in buffer is compared to the amount in the acetonitrile solution.
# Solubility is usually being measured from 0.001 to 0.125 mg/ml at a DMSO concentration of 2.5%. If more than 90% of the compound is dissolved in buffer, the value is marked with “>”.
# plasma proteins [2] = experiment: Plasma protein binding by equilibrium dialysis, human plasma; format: in vitro ADME; conditions: 37° C.
# Procedure: (§1) Equilibrium dialysis (ED) technique is used to determine the approximate in vitro fractional binding of test compounds to plasma proteins (human, rat mouse):
# (§2) Teflon dialysis cells or RED-devices are used. Each cell consists of a donor and an acceptor chamber, separated by an ultrathin semipermeable membrane (cutoff 5-10 kDa, high permeability).
# (§3) Stock solutions for each test compound are prepared in DMSO. Plasma (anticoagulant EDTA) is spiked with test compound and then transferred into the donor chamber, while dialysis buffer (PBS containing Dextran, pH 7.4) is dispensed into the acceptor chamber.
# (§4) Dextran (Leuconostoc ssp, MW approx. 40000, No. 31389, Fluka) concentration [g/L] in PBS for species: • human: 40 g/L buffer • rat: 37 g/L buffer • mouse 32 g/L buffer.
# (§5) Incubation is carried out for up to 6 hours (standard 3 h) under rotation at 37° C. After the dialysis period aliquots of both dialysates are analysed using HPLC-MS/MS.
# (§6) Percent bound is calculated according to the equation: % bound=(Cp−Cb/Cp)×100 • Cp=plasma concentration • Cb=buffer concentration
# (§7) Percent free is calculated according to the equation: % free=100−% bound
# plasma proteins [3] = experiment: Plasma protein binding by equilibrium dialysis, rat plasma; format: in vitro ADME; conditions: 37° C.
# Procedure: as §1, §2, §3, §4, §5, §6, §7
# plasma proteins [4] = experiment: Plasma protein binding by equilibrium dialysis, mouse plasma; format: in vitro ADME; conditions: 37° C.
# Procedure: as §1, §2, §3, §4, §5, §6, §7
# [5] = molecular target: T1, AMPK complex 1 (containing alpha1beta1gamma1) (Homo sapiens, UniProt Q13131+Q9Y478); experiment: In vitro AMPK activation assay (ADP-Glo Kinase Assay); format: biochemical; conditions: 30 μM ATP, 1 μM peptide, 60 min, room temperature
# T1 construct: GST (Glutathion S transferase) (N); made in house; host or cells: baculovirus; virus made in Sf9, expression in High Five cells
# Procedure, shortened: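 GST-tagged human AMPK alpha1beta1gamma1 expressed in insect cells, incubated with 1 μM peptide substrate and 30 μM ATP for 60 min at room temperature, 0.1% DMSO. ADP-Glo luminescence as % of vehicle control (AMP 30 μM high reference); EC50 from 4-parameter fit; activation above 100%.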
# T1 sequence (Q13131 whole entry): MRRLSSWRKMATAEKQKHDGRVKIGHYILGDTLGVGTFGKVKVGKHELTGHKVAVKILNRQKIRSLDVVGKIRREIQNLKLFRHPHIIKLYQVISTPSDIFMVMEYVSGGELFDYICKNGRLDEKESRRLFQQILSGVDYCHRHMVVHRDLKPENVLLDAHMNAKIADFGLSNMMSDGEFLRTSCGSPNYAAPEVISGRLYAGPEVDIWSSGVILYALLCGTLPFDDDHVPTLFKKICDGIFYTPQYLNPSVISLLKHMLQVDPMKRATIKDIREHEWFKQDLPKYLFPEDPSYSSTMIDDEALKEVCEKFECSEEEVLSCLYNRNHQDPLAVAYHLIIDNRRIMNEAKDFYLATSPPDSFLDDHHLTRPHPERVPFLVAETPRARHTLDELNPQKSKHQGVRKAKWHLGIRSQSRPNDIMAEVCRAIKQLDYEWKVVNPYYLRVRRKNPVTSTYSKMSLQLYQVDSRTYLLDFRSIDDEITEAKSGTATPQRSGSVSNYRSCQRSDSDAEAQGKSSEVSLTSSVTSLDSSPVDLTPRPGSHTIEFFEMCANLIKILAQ
# T1 sequence (Q9Y478 whole entry): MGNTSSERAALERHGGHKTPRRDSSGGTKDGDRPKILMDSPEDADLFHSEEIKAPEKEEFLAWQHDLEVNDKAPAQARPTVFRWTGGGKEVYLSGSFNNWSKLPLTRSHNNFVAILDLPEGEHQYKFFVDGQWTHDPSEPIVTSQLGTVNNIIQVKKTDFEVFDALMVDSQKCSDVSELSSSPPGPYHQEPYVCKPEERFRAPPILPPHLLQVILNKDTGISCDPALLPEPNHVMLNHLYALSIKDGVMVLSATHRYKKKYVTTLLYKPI
# T1 sequence (P54619 whole entry partner): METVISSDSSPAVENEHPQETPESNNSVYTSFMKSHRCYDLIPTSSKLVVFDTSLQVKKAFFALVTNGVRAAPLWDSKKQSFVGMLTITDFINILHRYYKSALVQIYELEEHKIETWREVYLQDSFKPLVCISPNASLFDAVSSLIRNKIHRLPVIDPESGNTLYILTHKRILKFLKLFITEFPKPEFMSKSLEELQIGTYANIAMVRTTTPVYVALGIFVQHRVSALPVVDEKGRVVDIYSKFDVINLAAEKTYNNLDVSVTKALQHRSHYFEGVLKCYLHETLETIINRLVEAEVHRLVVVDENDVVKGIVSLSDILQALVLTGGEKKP
solubility at 24 h ([1]; pH 2.2 buffer),solubility at 24 h ([1]; pH 4.5 buffer),solubility at 24 h ([1]; pH 6.8 buffer),Plasma Protein Binding (plasma proteins [2]),Plasma Protein Binding (plasma proteins [3]),Plasma Protein Binding (plasma proteins [4]),SMILES,EC50 [5]
17 µg/mL,2 µg/mL,1 µg/mL,98.55 % bound,98.67 % bound,98.68 % bound,"CS(C)(=O)=Nc1ccc(-c2ccc(-c3nc4[nH]c(O[C@@H]5CO[C@H]6[C@@H]5OC[C@H]6O)nc4cc3Cl)cc2)cc1 [Example 2, N-(4′-(6-Chloro-2-((3R,3aR,6R,6aR)-6-hydroxyhexahydrofuro[3,2-b]furan-3-yloxy)-3H-imidazo[4,5-b]pyridin-5-yl)biphenyl-4-yl)-S,S-dimethylsulfoximide]",3 nM
105 µg/mL,< 1 µg/mL,< 1 µg/mL,98.92 % bound,98.23 % bound,98.64 % bound,"CN=S(C)(=O)c1ccc(-c2ccc(-c3nc4[nH]c(O[C@@H]5CO[C@H]6[C@@H]5OC[C@H]6O)nc4cc3Cl)cc2)cc1 (stereo partly drawn) [Example 10, (3R,3aR,6R,6aR)-6-(6-Chloro-5-(4′-(N,S-dimethylsulfonimidoyl)biphenyl-4-yl)-3H-imidazo[4,5-b]pyridin-2-yloxy)hexahydrofuro[3,2-b]furan-3-ol]",4 nM
> 119 µg/mL,5 µg/mL,< 1 µg/mL,98.48 % bound,98.94 % bound,99.23 % bound,"CS(C)(=O)=NCc1ccc(-c2ccc(-c3nc4[nH]c(O[C@@H]5CO[C@H]6[C@@H]5OC[C@H]6O)nc4cc3Cl)cc2)cc1 [Example 45, N-(4′-(6-Chloro-2-((3R,3aR,6R,6aR)-6-hydroxyhexahydrofuro[3,2-b]furan-3-yloxy)-3H-imidazo[4,5-b]pyridin-5-yl)biphenyl-4-ylmethyl)-S,S-dimethylsulfoximide]",29 nM
